Results taken from the kinase profiling compilation of Christmann-Franck et al. (2016).
Several values for one entry are separate records, joined by “and”; a condition that tells them apart may be missing. Identical values can stand only once.

What was measured:
Experiment in all cases: radiometric filter-binding kinase assay
AURKA (human) = AURKA (human) (UniProt O14965); conditions: compound 100.0 µM; ATP 5 µM
BTK (human) = BTK (human) (UniProt Q06187); conditions: compound 100.0 µM; ATP 50 µM
CHEK1 (human) = CHEK1 (human) (UniProt O14757); conditions: compound 100.0 µM; ATP 20 µM
CLK2 (human) = CLK2 (human) (UniProt P49760); conditions: compound 100.0 µM; ATP 5 µM
EEF2K (human) = EEF2K (human) (UniProt O00418); conditions: compound 100.0 µM; ATP 5 µM
EPHB4 (human) = EPHB4 (human) (UniProt P54760); conditions: compound 100.0 µM; ATP 5 µM
GSK3B (human) = GSK3B (human) (UniProt P49841); conditions: compound 100.0 µM; ATP 5 µM
HIPK2 (human) = HIPK2 (human) (UniProt Q9H2X6); conditions: compound 100.0 µM; ATP 5 µM
HIPK3 (human) = HIPK3 (human) (UniProt Q9H422); conditions: compound 100.0 µM; ATP 20 µM
IGF1R (human) = IGF1R (human) (UniProt P08069); conditions: compound 100.0 µM; ATP 5 µM
IKBKB (human) = IKBKB (human) (UniProt O14920); conditions: compound 100.0 µM; ATP 5 µM
INSR (human) = INSR (human) (UniProt P06213); conditions: compound 100.0 µM; ATP 20 µM
INSRR (human) = INSRR (human) (UniProt P14616); conditions: compound 100.0 µM; ATP 5 µM
IRAK4 (human) = IRAK4 (human) (UniProt Q9NWZ3); conditions: compound 100.0 µM; ATP 20 µM
JAK2 JH1 JH2 (human) = JAK2 JH1 JH2 (human) (UniProt O60674); conditions: compound 100.0 µM; ATP 5 µM
MAP2K6 (human) = MAP2K6 (human) (UniProt P52564); conditions: compound 100.0 µM; ATP 50 µM
MAP3K1 (human) = MAP3K1 (human) (UniProt Q13233); conditions: compound 100.0 µM; ATP 50 µM
MAP3K11 (human) = MAP3K11 (human) (UniProt Q16584); conditions: compound 100.0 µM; ATP 20 µM
MAP3K7 TAB1 (human) = MAP3K7 TAB1 (human) (UniProt Q15750+O43318); conditions: compound 100.0 µM; ATP 5 µM
MAPK10 (human) = MAPK10 (human) (UniProt P53779); conditions: compound 100.0 µM; ATP 20 µM
MAPK12 (human) = MAPK12 (human) (UniProt P53778); conditions: compound 100.0 µM; ATP 5 µM
MAPK15 (human) = MAPK15 (human) (UniProt Q8TD08); conditions: compound 100.0 µM; ATP 5 µM
MAPK3 (human) = MAPK3 (human) (UniProt P27361); conditions: compound 100.0 µM; ATP 5 µM
MELK (human) = MELK (human) (UniProt Q14680); conditions: compound 100.0 µM; ATP 50 µM
MINK1 (human) = MINK1 (human) (UniProt Q8N4C8); conditions: compound 100.0 µM; ATP 50 µM
NEK6 (human) = NEK6 (human) (UniProt Q9HC98); conditions: compound 100.0 µM; ATP 50 µM
NUAK1 (human) = NUAK1 (human) (UniProt O60285); conditions: compound 100.0 µM; ATP 20 µM
PAK6 (human) = PAK6 (human) (UniProt Q9NQU5); conditions: compound 100.0 µM; ATP 20 µM
PDPK1 (human) = PDPK1 (human) (UniProt O15530); conditions: compound 100.0 µM
PLK1 (human) = PLK1 (human) (UniProt P53350); conditions: compound 100.0 µM; ATP 5 µM
[1] = molecular target: PRKAA1 PRKAB2 PRKAG1 (human) (UniProt O43741+Q13131+P54619); conditions: compound 100.0 µM; ATP 20 µM
PRKACA (human) = PRKACA (human) (UniProt P17612); conditions: compound 100.0 µM; ATP 20 µM
PRKCA (human) = PRKCA (human) (UniProt P17252); conditions: compound 100.0 µM; ATP 20 µM
RIPK2 (human) = RIPK2 (human) (UniProt O43353); conditions: compound 100.0 µM; ATP 20 µM
[2] = tested on: RPS6KB1 (human), P23443 [T412E]; conditions: compound 100.0 µM; ATP 20 µM
[3] = tested on: SGK1 (human), O00141 [S422D]; conditions: compound 100.0 µM; ATP 20 µM
[4] = molecular target: STK11 CAB39 STRADA (human) (UniProt Q9Y376+Q7RTN6+Q15831); conditions: compound 100.0 µM; ATP 20 µM
STK16 (human) = STK16 (human) (UniProt O75716); conditions: compound 100.0 µM; ATP 50 µM
YES1 (human) = YES1 (human) (UniProt P07947); conditions: compound 100.0 µM; ATP 20 µM
YES1 (human), sequence (P07947 whole entry, looked up): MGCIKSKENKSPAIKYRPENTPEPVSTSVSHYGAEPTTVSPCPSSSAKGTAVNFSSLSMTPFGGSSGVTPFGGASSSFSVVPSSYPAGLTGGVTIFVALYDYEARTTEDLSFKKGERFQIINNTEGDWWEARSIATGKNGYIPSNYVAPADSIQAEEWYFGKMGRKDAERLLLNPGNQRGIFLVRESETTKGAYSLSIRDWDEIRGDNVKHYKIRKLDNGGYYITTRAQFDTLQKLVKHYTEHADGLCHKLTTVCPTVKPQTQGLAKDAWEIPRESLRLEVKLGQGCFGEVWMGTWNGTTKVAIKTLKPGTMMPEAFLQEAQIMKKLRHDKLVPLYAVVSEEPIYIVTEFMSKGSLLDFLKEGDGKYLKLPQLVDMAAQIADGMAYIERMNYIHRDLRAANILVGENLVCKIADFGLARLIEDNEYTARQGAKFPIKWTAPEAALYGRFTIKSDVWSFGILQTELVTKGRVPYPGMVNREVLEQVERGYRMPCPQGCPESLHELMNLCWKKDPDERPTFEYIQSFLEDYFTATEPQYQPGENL

EEF2K (human), sequence (O00418 whole entry, looked up): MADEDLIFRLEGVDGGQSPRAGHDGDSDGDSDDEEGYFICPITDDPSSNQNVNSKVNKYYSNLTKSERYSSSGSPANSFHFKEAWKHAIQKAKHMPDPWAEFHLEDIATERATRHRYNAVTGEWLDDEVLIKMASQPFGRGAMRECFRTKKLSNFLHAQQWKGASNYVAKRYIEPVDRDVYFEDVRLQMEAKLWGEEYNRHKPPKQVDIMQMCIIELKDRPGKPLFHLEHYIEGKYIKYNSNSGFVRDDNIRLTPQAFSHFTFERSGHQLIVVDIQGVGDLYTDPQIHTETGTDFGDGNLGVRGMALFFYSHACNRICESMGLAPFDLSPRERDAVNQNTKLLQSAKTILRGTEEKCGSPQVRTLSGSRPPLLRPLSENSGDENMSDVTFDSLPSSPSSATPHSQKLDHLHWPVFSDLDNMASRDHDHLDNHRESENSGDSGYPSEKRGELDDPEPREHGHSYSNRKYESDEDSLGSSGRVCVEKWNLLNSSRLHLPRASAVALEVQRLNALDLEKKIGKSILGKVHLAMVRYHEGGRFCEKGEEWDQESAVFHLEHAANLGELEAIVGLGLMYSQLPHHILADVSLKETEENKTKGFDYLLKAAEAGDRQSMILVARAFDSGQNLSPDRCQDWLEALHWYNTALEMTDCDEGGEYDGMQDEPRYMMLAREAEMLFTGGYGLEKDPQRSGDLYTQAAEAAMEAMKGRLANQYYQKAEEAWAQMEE
GSK3B (human), sequence (P49841 whole entry, looked up): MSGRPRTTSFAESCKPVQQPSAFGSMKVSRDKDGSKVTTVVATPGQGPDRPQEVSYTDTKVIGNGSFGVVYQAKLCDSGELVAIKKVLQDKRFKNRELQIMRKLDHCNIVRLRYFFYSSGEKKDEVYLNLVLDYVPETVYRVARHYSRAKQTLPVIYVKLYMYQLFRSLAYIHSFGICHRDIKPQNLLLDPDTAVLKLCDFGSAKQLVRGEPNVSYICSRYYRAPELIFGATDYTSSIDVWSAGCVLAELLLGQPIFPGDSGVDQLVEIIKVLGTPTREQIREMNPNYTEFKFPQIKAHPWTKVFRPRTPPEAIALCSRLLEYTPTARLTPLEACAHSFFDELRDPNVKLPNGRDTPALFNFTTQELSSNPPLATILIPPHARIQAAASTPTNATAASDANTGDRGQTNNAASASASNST
HIPK2 (human), sequence (Q9H2X6 whole entry, looked up): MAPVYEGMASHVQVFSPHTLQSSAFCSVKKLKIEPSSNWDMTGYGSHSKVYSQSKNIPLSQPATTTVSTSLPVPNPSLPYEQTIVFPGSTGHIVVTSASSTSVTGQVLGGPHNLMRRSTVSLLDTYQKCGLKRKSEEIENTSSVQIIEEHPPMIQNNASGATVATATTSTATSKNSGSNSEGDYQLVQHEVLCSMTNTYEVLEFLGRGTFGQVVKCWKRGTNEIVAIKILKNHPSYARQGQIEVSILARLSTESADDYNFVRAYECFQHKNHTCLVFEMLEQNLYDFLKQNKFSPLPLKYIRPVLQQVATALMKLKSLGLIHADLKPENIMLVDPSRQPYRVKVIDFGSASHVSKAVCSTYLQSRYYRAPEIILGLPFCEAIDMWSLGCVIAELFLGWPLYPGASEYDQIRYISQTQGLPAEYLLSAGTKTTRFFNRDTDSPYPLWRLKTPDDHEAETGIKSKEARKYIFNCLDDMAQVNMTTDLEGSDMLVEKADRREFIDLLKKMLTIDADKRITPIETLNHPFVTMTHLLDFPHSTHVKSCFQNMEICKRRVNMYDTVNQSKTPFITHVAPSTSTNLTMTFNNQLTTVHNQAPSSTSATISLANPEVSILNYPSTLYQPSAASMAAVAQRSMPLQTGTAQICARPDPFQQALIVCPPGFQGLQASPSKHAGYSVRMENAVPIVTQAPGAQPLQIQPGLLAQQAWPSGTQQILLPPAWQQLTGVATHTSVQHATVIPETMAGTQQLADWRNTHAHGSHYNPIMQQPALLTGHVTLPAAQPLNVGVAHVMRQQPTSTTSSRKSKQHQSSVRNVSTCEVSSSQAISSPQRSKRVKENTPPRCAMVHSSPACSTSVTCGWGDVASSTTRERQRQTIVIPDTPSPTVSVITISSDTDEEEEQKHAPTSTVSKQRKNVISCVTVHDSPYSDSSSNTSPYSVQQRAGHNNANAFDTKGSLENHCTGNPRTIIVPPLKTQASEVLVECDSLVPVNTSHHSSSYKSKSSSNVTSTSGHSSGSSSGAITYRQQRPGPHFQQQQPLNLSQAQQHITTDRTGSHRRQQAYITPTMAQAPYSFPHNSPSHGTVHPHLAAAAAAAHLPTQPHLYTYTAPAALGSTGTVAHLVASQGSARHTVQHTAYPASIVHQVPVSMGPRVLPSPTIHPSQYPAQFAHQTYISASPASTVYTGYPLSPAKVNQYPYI
SGK1 (human), O00141 [S422D], sequence (O00141 whole entry S422D, looked up): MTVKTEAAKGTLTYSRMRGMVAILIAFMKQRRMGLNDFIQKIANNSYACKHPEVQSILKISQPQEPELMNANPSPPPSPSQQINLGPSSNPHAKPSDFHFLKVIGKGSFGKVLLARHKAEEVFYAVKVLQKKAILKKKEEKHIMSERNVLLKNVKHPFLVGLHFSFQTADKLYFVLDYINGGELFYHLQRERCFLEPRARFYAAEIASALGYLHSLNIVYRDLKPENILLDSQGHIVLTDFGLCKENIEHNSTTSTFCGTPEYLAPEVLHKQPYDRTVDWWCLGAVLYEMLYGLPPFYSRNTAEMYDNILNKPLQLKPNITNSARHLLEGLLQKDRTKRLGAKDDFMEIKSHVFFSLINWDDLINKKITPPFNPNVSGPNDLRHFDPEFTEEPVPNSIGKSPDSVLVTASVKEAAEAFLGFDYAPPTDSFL
PAK6 (human), sequence (Q9NQU5 whole entry, looked up): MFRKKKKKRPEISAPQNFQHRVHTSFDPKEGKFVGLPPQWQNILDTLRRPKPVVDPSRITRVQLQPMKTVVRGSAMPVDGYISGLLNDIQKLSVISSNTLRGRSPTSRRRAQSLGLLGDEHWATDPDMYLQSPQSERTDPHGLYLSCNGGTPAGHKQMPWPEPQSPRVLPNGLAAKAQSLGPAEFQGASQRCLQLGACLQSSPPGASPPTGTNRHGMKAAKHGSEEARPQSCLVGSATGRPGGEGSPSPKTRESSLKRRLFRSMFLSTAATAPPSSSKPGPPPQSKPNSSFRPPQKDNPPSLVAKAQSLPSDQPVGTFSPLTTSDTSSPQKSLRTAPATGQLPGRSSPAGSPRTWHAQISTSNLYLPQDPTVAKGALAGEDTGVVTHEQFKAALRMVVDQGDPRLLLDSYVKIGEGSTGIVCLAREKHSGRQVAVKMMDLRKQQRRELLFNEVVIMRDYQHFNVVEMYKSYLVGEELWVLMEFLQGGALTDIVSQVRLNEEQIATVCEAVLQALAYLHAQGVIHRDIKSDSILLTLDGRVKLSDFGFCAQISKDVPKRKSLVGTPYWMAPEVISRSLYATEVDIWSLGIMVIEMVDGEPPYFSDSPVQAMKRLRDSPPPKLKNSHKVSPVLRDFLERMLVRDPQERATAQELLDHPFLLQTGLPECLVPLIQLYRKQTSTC
NUAK1 (human), sequence (O60285 whole entry, looked up): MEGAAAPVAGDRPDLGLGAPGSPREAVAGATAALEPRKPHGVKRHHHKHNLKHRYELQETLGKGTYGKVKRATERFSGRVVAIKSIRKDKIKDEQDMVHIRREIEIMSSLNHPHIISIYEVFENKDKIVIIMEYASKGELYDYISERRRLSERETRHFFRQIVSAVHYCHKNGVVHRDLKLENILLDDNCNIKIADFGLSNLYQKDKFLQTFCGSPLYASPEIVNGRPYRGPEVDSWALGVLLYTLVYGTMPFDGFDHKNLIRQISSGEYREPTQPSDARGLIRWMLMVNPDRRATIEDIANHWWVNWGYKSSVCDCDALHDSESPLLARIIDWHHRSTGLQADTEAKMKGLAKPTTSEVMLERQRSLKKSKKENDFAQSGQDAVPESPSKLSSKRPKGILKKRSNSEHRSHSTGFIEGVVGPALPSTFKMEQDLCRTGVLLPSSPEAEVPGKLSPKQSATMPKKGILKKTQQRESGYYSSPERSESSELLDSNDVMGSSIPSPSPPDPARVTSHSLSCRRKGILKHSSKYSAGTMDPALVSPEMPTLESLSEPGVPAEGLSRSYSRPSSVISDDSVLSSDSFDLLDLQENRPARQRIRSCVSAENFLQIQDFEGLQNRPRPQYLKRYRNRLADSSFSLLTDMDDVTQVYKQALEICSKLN
MAPK12 (human), sequence (P53778 whole entry, looked up): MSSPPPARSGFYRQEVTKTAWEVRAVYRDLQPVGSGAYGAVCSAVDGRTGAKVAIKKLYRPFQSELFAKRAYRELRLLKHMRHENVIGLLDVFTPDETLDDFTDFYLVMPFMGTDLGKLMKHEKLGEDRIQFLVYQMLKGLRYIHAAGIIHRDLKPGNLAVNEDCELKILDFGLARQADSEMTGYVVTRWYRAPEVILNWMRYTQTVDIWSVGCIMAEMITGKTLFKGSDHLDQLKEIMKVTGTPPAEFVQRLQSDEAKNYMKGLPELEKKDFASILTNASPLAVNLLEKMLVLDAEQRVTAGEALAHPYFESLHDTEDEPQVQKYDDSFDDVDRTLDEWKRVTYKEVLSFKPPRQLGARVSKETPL

Row | Structure (SMILES) | inhibition (AURKA (human)) | inhibition (BTK (human)) | inhibition (CHEK1 (human)) | inhibition (CLK2 (human)) | inhibition (EEF2K (human)) | inhibition (EPHB4 (human)) | inhibition (GSK3B (human)) | inhibition (HIPK2 (human)) | inhibition (HIPK3 (human)) | inhibition (IGF1R (human)) | inhibition (IKBKB (human)) | inhibition (INSR (human)) | inhibition (INSRR (human)) | inhibition (IRAK4 (human)) | inhibition (JAK2 JH1 JH2 (human)) | inhibition (MAP2K6 (human)) | inhibition (MAP3K1 (human)) | inhibition (MAP3K11 (human)) | inhibition (MAP3K7 TAB1 (human)) | inhibition (MAPK10 (human)) | other results
1 | COc1ccc(NC(=S)Nc2cnc3[nH]cnn3c2=O)cn1 | 23% | 25% | 0% | 1% | 10% | 1% | 2% | 1% | 0% | 0% | 0% | 0% | 0% | 0% | 23% | 0% | 0% | 0% | 2% | 0% | inhibition (MAPK12 (human)): 0%; inhibition (MAPK15 (human)): 8%; inhibition (MAPK3 (human)): 0%; inhibition (MELK (human)): 0%; inhibition (MINK1 (human)): 16%; inhibition (NEK6 (human)): 3%; inhibition (NUAK1 (human)): 0%; inhibition (PAK6 (human)): 0%; inhibition (PDPK1 (human); ATP 20 µM): 29%; inhibition (PDPK1 (human); ATP 50 µM): 10%; inhibition (PLK1 (human)): 8%; inhibition [1]: 0%; inhibition (PRKACA (human)): 0% and 14%; inhibition (PRKCA (human)): 23%; inhibition (RIPK2 (human)): 0%; inhibition [2]: 0%; inhibition [3]: 0%; inhibition [4]: 0%; inhibition (STK16 (human)): 3%; inhibition (YES1 (human)): 30%
2 | O=c1c(NC(=S)NCc2ccccc2)cnc2[nH]ccn12 | 8% | 16% | 0% | 3% | 6% | 9% | 13% | 0% | 0% | 0% | 0% | 0% | 0% | 6% | 0% | 0% | 0% | 11% | 20% | 0% | inhibition (MAPK12 (human)): 0%; inhibition (MAPK15 (human)): 3%; inhibition (MAPK3 (human)): 7%; inhibition (MELK (human)): 0%; inhibition (MINK1 (human)): 0%; inhibition (NEK6 (human)): 6%; inhibition (NUAK1 (human)): 0%; inhibition (PAK6 (human)): 0%; inhibition (PDPK1 (human); ATP 20 µM): 0%; inhibition (PDPK1 (human); ATP 50 µM): 0%; inhibition (PLK1 (human)): 0%; inhibition [1]: 0%; inhibition (PRKACA (human)): 0%; inhibition (PRKCA (human)): 2%; inhibition (RIPK2 (human)): 0%; inhibition [2]: 9%; inhibition [3]: 0%; inhibition [4]: 0%; inhibition (STK16 (human)): 0%; inhibition (YES1 (human)): 0%
3 | CC(C)(C)Nc1c(C2CC2)nc2[nH]cnn12 | 16% | 6% | 0% | 34% | 18% | 19% | 24% | 22% | 0% | 0% | 11% | 0% | 0% | 0% | 3% | 3% | 0% | 0% | 3% | 1% | inhibition (MAPK12 (human)): 0%; inhibition (MAPK15 (human)): 60%; inhibition (MAPK3 (human)): 0%; inhibition (MELK (human)): 0%; inhibition (MINK1 (human)): 0%; inhibition (NEK6 (human)): 0%; inhibition (NUAK1 (human)): 24%; inhibition (PAK6 (human)): 0%; inhibition (PDPK1 (human); ATP 20 µM): 3%; inhibition (PDPK1 (human); ATP 50 µM): 11%; inhibition (PLK1 (human)): 0%; inhibition [1]: 5%; inhibition (PRKACA (human)): 0% and 5%; inhibition (PRKCA (human)): 0%; inhibition (RIPK2 (human)): 0%; inhibition [2]: 0%; inhibition [3]: 0%; inhibition [4]: 0%; inhibition (STK16 (human)): 0%; inhibition (YES1 (human)): 0%
4 | CC(C)(C)Nc1c(COCc2ccccc2)nc2[nH]cnn12 | 5% | 51% | 0% | 43% | 0% | 13% | 38% | 18% | 1% | 0% | 9% | 4% | 4% | 0% | 11% | 1% | 0% | 0% | 31% | 0% | inhibition (MAPK12 (human)): 0%; inhibition (MAPK15 (human)): 1%; inhibition (MAPK3 (human)): 1%; inhibition (MELK (human)): 16%; inhibition (MINK1 (human)): 3%; inhibition (NEK6 (human)): 0%; inhibition (NUAK1 (human)): 20%; inhibition (PAK6 (human)): 20%; inhibition (PDPK1 (human); ATP 20 µM): 13%; inhibition (PDPK1 (human); ATP 50 µM): 8%; inhibition (PLK1 (human)): 0%; inhibition [1]: 18%; inhibition (PRKACA (human)): 0% and 21%; inhibition (PRKCA (human)): 0%; inhibition (RIPK2 (human)): 13%; inhibition [2]: 0%; inhibition [3]: 0%; inhibition [4]: 0%; inhibition (STK16 (human)): 0%; inhibition (YES1 (human)): 4%
5 | CC1CN(c2nc3ccccn3c(=O)c2N)CC(C)O1 (stereo not given) | 2% | 1% | 0% | 57% | 35% | 12% | 64% | 0% | 0% | 0% | 22% | 1% | 1% | 3% | 35% | 1% | 0% | 0% | 0% | 9% | inhibition (MAPK12 (human)): 1%; inhibition (MAPK15 (human)): 0%; inhibition (MAPK3 (human)): 0%; inhibition (MELK (human)): 7%; inhibition (MINK1 (human)): 2%; inhibition (NEK6 (human)): 0%; inhibition (NUAK1 (human)): 3%; inhibition (PAK6 (human)): 4%; inhibition (PDPK1 (human); ATP 20 µM): 31%; inhibition (PDPK1 (human); ATP 50 µM): 26%; inhibition (PLK1 (human)): 0%; inhibition [1]: 2%; inhibition (PRKACA (human)): 0% and 15%; inhibition (PRKCA (human)): 15%; inhibition (RIPK2 (human)): 28%; inhibition [2]: 0%; inhibition [3]: 0%; inhibition [4]: 0%; inhibition (STK16 (human)): 6%; inhibition (YES1 (human)): 57%
